Source: PubChem BioAssay AID330 (DTP/NCI, 2004)
Several values for one entry are separate records, joined by “and”; a condition that tells them apart may be missing. Equal entries are not always repeated. Inconclusive results and toxic doses are left out. How the source made its calls: active means survival T/C of 150% or more; inactive means T/C below 125% in these data.

System: P388 leukemia ip, CD2F1 mice, survival T/C
Assay: NCI In Vivo Anticancer Drug Screen. Data for tumor model P388 Leukemia (intraperitoneal) in CD2F1 (CDF1) mice
Conditions: endpoint: median survival time, higher = longer survival
How it was run: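 Mice carrying the transplanted tumor received test compound or vehicle. Survival was recorded in each group, and the value is the treated-group measurement divided by that of the vehicle-treated control group.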

[1] = dose: 12.5 mg/kg/injection, schedule: Q01DX009 (ip), vehicle: saline
[2] = dose: 25.0 mg/kg/injection, schedule: Q01DX009 (ip), vehicle: saline
[3] = dose: 50.0 mg/kg/injection, schedule: Q01DX009 (ip), vehicle: saline
[4] = dose: 100.0 mg/kg/injection, schedule: Q01DX009 (ip), vehicle: saline
[5] = dose: 60.0 mg/kg/injection, schedule: Q01DX005 (ip), vehicle: Klucel (hydroxypropylcellulose) (HPC)
[6] = dose: 120.0 mg/kg/injection, schedule: Q01DX005 (ip), vehicle: Klucel (hydroxypropylcellulose) (HPC)
[7] = dose: 240.0 mg/kg/injection, schedule: Q01DX005 (ip), vehicle: Klucel (hydroxypropylcellulose) (HPC)
[8] = dose: 60.0 mg/kg/injection, schedule: Q01DX005 (ip), vehicle: saline
[9] = dose: 120.0 mg/kg/injection, schedule: Q01DX005 (ip), vehicle: saline
[10] = dose: 60.0 mg/kg/injection, schedule: Q01DX005 (ip), vehicle: saline with Tween-80
[11] = dose: 120.0 mg/kg/injection, schedule: Q01DX005 (ip), vehicle: saline with Tween-80
[12] = dose: 240.0 mg/kg/injection, schedule: Q01DX005 (ip), vehicle: saline with Tween-80
[13] = dose: 100.0 mg/kg/injection, schedule: Q04DX003 (ip), vehicle: saline with Tween-80
[14] = dose: 200.0 mg/kg/injection, schedule: Q04DX003 (ip), vehicle: saline with Tween-80
[15] = dose: 50.0 mg/kg/injection, schedule: Q01DX009 (ip), vehicle: saline with Tween-80
[16] = dose: 100.0 mg/kg/injection, schedule: Q01DX009 (ip), vehicle: saline with Tween-80
[17] = dose: 200.0 mg/kg/injection, schedule: Q01DX009 (ip), vehicle: saline with Tween-80
[18] = dose: 50.0 mg/kg/injection, schedule: Q01DX009 (ip), vehicle: Klucel (hydroxypropylcellulose) (HPC)
[19] = dose: 100.0 mg/kg/injection, schedule: Q01DX009 (ip), vehicle: Klucel (hydroxypropylcellulose) (HPC)
[20] = dose: 200.0 mg/kg/injection, schedule: Q01DX009 (ip), vehicle: Klucel (hydroxypropylcellulose) (HPC)
[21] = dose: 50.0 mg/kg/injection, schedule: Q01DX005 (ip), vehicle: Klucel (hydroxypropylcellulose) (HPC)
[22] = dose: 100.0 mg/kg/injection, schedule: Q01DX005 (ip), vehicle: Klucel (hydroxypropylcellulose) (HPC)
[23] = dose: 200.0 mg/kg/injection, schedule: Q01DX005 (ip), vehicle: Klucel (hydroxypropylcellulose) (HPC)

Measured: T/C

CCCCOC(=O)N(CCCl)N=O
inactive: dose: 1.25 mg/kg/injection, schedule: Q01DX009 (ip), vehicle: saline with Tween-80 119 % of control | dose: 2.5 mg/kg/injection, schedule: Q01DX009 (ip), vehicle: saline with Tween-80 108 % of control | dose: 5.0 mg/kg/injection, schedule: Q01DX009 (ip), vehicle: saline with Tween-80 98 % of control

CCc1c(C#N)c(S)[nH]c(=S)c1C#N
inactive: [1] 90 % of control | [2] 100 % of control | [3] 98 % of control and 102 % of control

NC(N)=NCC1CCCCCCN1 (centres undefined)
inactive: [1] 106 % of control | [2] 100 % of control | [3] 104 % of control | [4] 104 % of control

C(=C1SCCCS1)c1cc2c(cc1OCc1ccccc1)OCO2
inactive: dose: 100.0 mg/kg/injection, schedule: Q01DX001 (ip), vehicle: Klucel (hydroxypropylcellulose) (HPC) 100 % of control | dose: 200.0 mg/kg/injection, schedule: Q01DX001 (ip), vehicle: Klucel (hydroxypropylcellulose) (HPC) 105 % of control | dose: 400.0 mg/kg/injection, schedule: Q01DX001 (ip), vehicle: Klucel (hydroxypropylcellulose) (HPC) 102 % of control

C1C2CC3C1C1OC3C21
inactive: [5] 100 % of control | [6] 99 % of control | [7] 100 % of control

NC(=O)C1CCCN1C(=O)C1CCCN(CCCCCCN2CCCC(C(=O)N3CCCC3C(N)=O)C2)C1 (centres undefined)
inactive: [8] 105 % of control | [9] 98 % of control

N#CSCc1c(Cl)cccc1Cl
inactive: dose: 25.0 mg/kg/injection, schedule: Q01DX009 (ip), vehicle: other 104 % of control | dose: 50.0 mg/kg/injection, schedule: Q01DX009 (ip), vehicle: other 104 % of control | dose: 100.0 mg/kg/injection, schedule: Q01DX009 (ip), vehicle: other 103 % of control | dose: 200.0 mg/kg/injection, schedule: Q01DX009 (ip), vehicle: other 113 % of control

NC(CCS(=O)(=O)NCCCl)C(=O)O (centres undefined)
inactive: dose: 12.5 mg/kg/injection, schedule: Q01DX009 (ip), vehicle: water 103 % of control | dose: 25.0 mg/kg/injection, schedule: Q01DX009 (ip), vehicle: water 105 % of control | dose: 50.0 mg/kg/injection, schedule: Q01DX009 (ip), vehicle: water 104 % of control | dose: 100.0 mg/kg/injection, schedule: Q01DX009 (ip), vehicle: water 102 % of control | dose: 200.0 mg/kg/injection, schedule: Q01DX009 (ip), vehicle: water 105 % of control

COc1ccc(C2CC(C)(N3CCCC3)Oc3cc4c(cc32)OCO4)cc1 (centres undefined)
inactive: [10] 101 % of control | [11] 92 % of control | [12] 98 % of control

NCc1c(Cl)c(Cl)c(Cl)c(CN)c1Cl
inactive: dose: 50.0 mg/kg/injection, schedule: Q04DX003 (ip), vehicle: saline with Tween-80 100 % of control | [13] 100 % of control | [14] 105 % of control

COc1cncn2nc(C)nc12
inactive: [8] 100 % of control | [9] 99 % of control | dose: 240.0 mg/kg/injection, schedule: Q01DX005 (ip), vehicle: saline 93 % of control

Cc1ccc(N=Nc2c(O)n(-c3ccc(Br)cc3)c(=S)n(-c3ccccc3)c2=O)cc1
inactive: dose: 100.0 mg/kg/injection, schedule: Q01DX001 (ip), vehicle: saline with Tween-80 95 % of control | dose: 200.0 mg/kg/injection, schedule: Q01DX001 (ip), vehicle: saline with Tween-80 100 % of control | dose: 400.0 mg/kg/injection, schedule: Q01DX001 (ip), vehicle: saline with Tween-80 90 % of control

CSc1nc(Cl)c(Cl)cc1Cl
inactive: [15] 100 % of control | [16] 97 % of control | [17] 91 % of control

O=C(O)c1ccccc1[Se](=O)(=O)O
inactive: [3] 98 % of control | [4] 100 % of control | dose: 200.0 mg/kg/injection, schedule: Q01DX009 (ip), vehicle: saline 112 % of control

FC(F)(F)C(F)(F)c1nc2nc(Cl)c(Cl)nc2[nH]1
inactive: dose: 50.0 mg/kg/injection, schedule: Q04DX003 (ip), vehicle: other 100 % of control | dose: 100.0 mg/kg/injection, schedule: Q04DX003 (ip), vehicle: other 118 % of control | dose: 200.0 mg/kg/injection, schedule: Q04DX003 (ip), vehicle: other 113 % of control

O=C1CCSC(=S)N1C(=O)c1ccccc1
inactive: [18] 104 % of control | [19] 104 % of control | [20] 109 % of control

CC(C)=NN/C=N/S(=O)(=O)c1ccc(C)cc1
inactive: [21] 104 % of control | [22] 104 % of control | [23] 104 % of control

CCOC(=O)\C(C#N)=C/C(C)=C/C(C)=C/Nc1ccc([N+](=O)[O-])cc1[N+](=O)[O-]
inactive: [21] 111 % of control | [22] 110 % of control | [23] 114 % of control

COc1ccc(C(c2cc3c(cc2O)OCO3)N2CCOCC2)c(OC)c1OC (centres undefined)
inactive: [10] 119 % of control | [11] 109 % of control | [12] 115 % of control

S=c1nc[nH]c2c1ncn2C1CCCC1
inactive: [13] 104 % of control | [14] 104 % of control | dose: 400.0 mg/kg/injection, schedule: Q04DX003 (ip), vehicle: saline with Tween-80 90 % of control

C/C=C1\C[N+]2(C)CCC34c5ccccc5NC32C(O)CC1C4(CO)C(=O)OC (centres undefined)
inactive: dose: 4.0 mg/kg/injection, schedule: Q01DX009 (ip), vehicle: saline with Tween-80 110 % of control | dose: 4.0 mg/kg/injection, schedule: Q01DX009 (ip), vehicle: saline 113 % of control | dose: 8.0 mg/kg/injection, schedule: Q01DX009 (ip), vehicle: saline with Tween-80 110 % of control | dose: 8.0 mg/kg/injection, schedule: Q01DX009 (ip), vehicle: saline 97 % of control | dose: 16.0 mg/kg/injection, schedule: Q01DX009 (ip), vehicle: saline with Tween-80 103 % of control | dose: 16.0 mg/kg/injection, schedule: Q01DX009 (ip), vehicle: saline 105 % of control | dose: 32.0 mg/kg/injection, schedule: Q01DX009 (ip), vehicle: saline with Tween-80 110 % of control | dose: 32.0 mg/kg/injection, schedule: Q01DX009 (ip), vehicle: saline 98 % of control

O=C1c2ccccc2C(=O)c2c1ccc(C1C(=O)c3ccccc3C1=O)c2-c1c(C2C(=O)c3ccccc3C2=O)ccc2c1C(=O)c1ccccc1C2=O
inactive: [10] 103 % of control | [11] 99 % of control | [12] 97 % of control

CN1CCCC(C(O)c2ccccc2)S1(=O)=O (centres undefined)
inactive: [15] 96 % of control | [16] 96 % of control | [17] 101 % of control

CC(=O)NC(CCSSCCC(NC(C)=O)C(=O)ON1C(=O)CCC1=O)C(=O)ON1C(=O)CCC1=O (centres undefined)
inactive: dose: 50.0 mg/kg/injection, schedule: Q01DX005 (ip), vehicle: saline with Tween-80 104 % of control | dose: 100.0 mg/kg/injection, schedule: Q01DX005 (ip), vehicle: saline with Tween-80 105 % of control | dose: 200.0 mg/kg/injection, schedule: Q01DX005 (ip), vehicle: saline with Tween-80 104 % of control

CNS(=O)(=O)c1c([O-])on[n+]1-c1ccccc1
inactive: [5] 99 % of control | [6] 104 % of control | [7] 86 % of control

COc1cc([N+](=O)[O-])c2nccc(C)c2c1
inactive: dose: 25.0 mg/kg/injection, schedule: Q01DX009 (ip), vehicle: Klucel (hydroxypropylcellulose) (HPC) 100 % of control | [18] 101 % of control | [19] 101 % of control | [20] 104 % of control

O=C1C(=O)c2ccccc2C(O)=C1CCCc1ccc(C2CCCCCC2)cc1
inactive: dose: 25.0 mg/kg/injection, schedule: Q01DX009 (ip), vehicle: saline with Tween-80 86 % of control | [15] 88 % of control | [16] 89 % of control | [17] 95 % of control

CCOC(=O)c1cnc(SC)n(-c2c(Cl)cccc2Cl)c1=O
inactive: [21] 98 % of control | [22] 97 % of control | [23] 99 % of control
